A short description of series [1]: Tmax in rat at 10 mg/kg, po. The format is ADME, organism-based. The arrangement: dose 10 mg/kg, route oral. The note with it: in vivo.
Series [2] concerns Rattus norvegicus. The series is described as follows: AUC in rat at 1 mg/kg, iv. The format is ADME, organism-based, Plasma. The arrangement: dose 1 mg/kg, route intravenous. As to conditions: in vivo.
Series [3] in a line: Volume of distribution at steady state in rat at 1 mg/kg, iv. The format is ADME, organism-based. The arrangement: dose 1 mg/kg, route intravenous. As to conditions: in vivo, read-out: Vdss.
Series [4] in a line: Oral bioavailability in rat at 10 mg/kg. It is filed as ADME, organism-based. As to conditions: in vivo.
A short description of series [5]: Ratio of AUC in brain to AUC in plasma of rat at 10 mg/kg, po. As to conditions: brain and plasma. The arrangement: dose 10 mg/kg, route oral. It is filed as ADME, organism-based.
Series [6] in a line: AUC in rat at 10 mg/kg, po. Also on record: dose 10 mg/kg, route oral. It is filed as ADME, organism-based. As to conditions: plasma.
The nature of series [7]: Cmax in rat at 10 mg/kg, po. The format is ADME, organism-based. The arrangement: dose 10 mg/kg, route oral. As to conditions: in vivo.
Series [8] can be described thus: Aqueous solubility of the compound at pH 7.4. The format is physicochemical. The note with it: aqueous solution.
The nature of series [9]: Aqueous solubility of the compound at pH 2.5. The format is physicochemical. The note with it: aqueous solution.

In brackets after ≈: the same amount, converted by molar mass. Some results are limits rather than exact numbers.

The Tmax is the time from dosing to the highest level. Broadly, the AUC is the area under the concentration-time curve, a measure of exposure. By bioavailability is commonly meant dose-corrected exposure relative to a reference, in per cent. Read a low bioavailability as little systemic uptake. The Kp is tissue or fluid exposure divided by exposure in the circulation. By Cmax is commonly meant the peak of the concentration-time curve. `CN(C(=O)Cn1c(=O)oc2ccc(-c3cccnc3)cc21)c1ccccc1.Cl`: the Tmax in series [1] is 1 h. Also, the results for the AUC in [2] and in series [6] were 6042 ng·h/mL and 8370 ng·h/mL, respectively. Besides, the Vd in series [3] came to 4.4 L/kg. The same compound returned a bioavailability in [4] of 13.9%. The concentration ratio (Kp) in [5] is 0.63. This compound displayed a peak concentration (Cmax) in [7] of 50.4 ng/mL.

What is called solubility is the concentration that dissolves in the medium under given conditions. The low end stands for a poorly soluble substance, the high end for a readily soluble substance. For the compound `CN(C(=O)Cn1c(=O)oc2ccc(-c3ccccc3)cc21)c1ccccc1`, in series [8], the solubility was below 1 µg/mL.

`CN(C(=O)Cn1c(=O)oc2ccc(-c3cccnc3)cc21)c1ccccc1` gave a solubility in series [9] of 440 µg/mL (≈ 1220 µM).

In series [8], `CN(C(=O)Cn1c(=O)oc2ccc(-c3ccccc3)cc21)c1cccnc1` showed a solubility of 45 µg/mL (≈ 125 µM).
